Values joined by “and” are separate entries in the source; they are usually repeats but may differ in a detail not shown here. Equal entries are not always repeated. Toxic doses and inconclusive results are not listed. No stated cut-off is given here; in the data, active means T/C of 150% or more; inactive means T/C below 125%.
Tested on: L1210 leukemia ip in BDF1 mice, survival T/C
Experiment: NCI In Vivo Anticancer Drug Screen. Data for tumor model L1210 Leukemia (intraperitoneal) in B6D2F1 (BDF1) mice
Details: endpoint: mean survival time, higher = longer survival
Procedure, shortened: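 Each compound was tested against a transplantable tumor grown in mice. The endpoint was survival, with treated animals benchmarked against vehicle controls as a simple ratio.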

[1] = dose: 200.0 mg/kg/injection, schedule: Q04DX003 (ip), vehicle: saline with Tween-80
[2] = dose: 400.0 mg/kg/injection, schedule: Q04DX002 (ip), vehicle: saline with Tween-80
[3] = dose: 100.0 mg/kg/injection, schedule: Q04DX002 (ip), vehicle: saline with Tween-80
[4] = dose: 200.0 mg/kg/injection, schedule: Q04DX002 (ip), vehicle: saline with Tween-80
[5] = dose: 100.0 mg/kg/injection, schedule: Q01DX001 (ip), vehicle: saline with Tween-80
[6] = dose: 200.0 mg/kg/injection, schedule: Q01DX001 (ip), vehicle: saline with Tween-80
[7] = dose: 400.0 mg/kg/injection, schedule: Q01DX001 (ip), vehicle: saline with Tween-80
[8] = dose: 100.0 mg/kg/injection, schedule: Q01DX001 (ip), vehicle: saline
[9] = dose: 200.0 mg/kg/injection, schedule: Q01DX001 (ip), vehicle: saline
[10] = dose: 400.0 mg/kg/injection, schedule: Q01DX001 (ip), vehicle: saline
[11] = dose: 100.0 mg/kg/injection, schedule: Q01DX001 (ip), vehicle: carboxymethylcellulose (CMC)
[12] = dose: 200.0 mg/kg/injection, schedule: Q01DX001 (ip), vehicle: carboxymethylcellulose (CMC)
[13] = dose: 400.0 mg/kg/injection, schedule: Q01DX001 (ip), vehicle: carboxymethylcellulose (CMC)
[14] = dose: 100.0 mg/kg/injection, schedule: Q04DX002 (ip), vehicle: Klucel (hydroxypropylcellulose) (HPC)
[15] = dose: 200.0 mg/kg/injection, schedule: Q04DX002 (ip), vehicle: Klucel (hydroxypropylcellulose) (HPC)
[16] = dose: 100.0 mg/kg/injection, schedule: Q04DX003 (ip), vehicle: Klucel (hydroxypropylcellulose) (HPC)
[17] = dose: 200.0 mg/kg/injection, schedule: Q04DX003 (ip), vehicle: Klucel (hydroxypropylcellulose) (HPC)
[18] = dose: 400.0 mg/kg/injection, schedule: Q04DX003 (ip), vehicle: Klucel (hydroxypropylcellulose) (HPC)

Measured: T/C

Cn1/c(=N/N=C(N)N)ccc2ccccc21
inactive: dose: 15.0 mg/kg/injection, schedule: Q01DX Z (ip), vehicle: methylcellulose (MC) 100 % of control | dose: 30.0 mg/kg/injection, schedule: Q01DX Z (ip), vehicle: methylcellulose (MC) 108 % of control | dose: 30.0 mg/kg/injection, schedule: Q01DX Z (oral), vehicle: methylcellulose (MC) 95 % of control | dose: 60.0 mg/kg/injection, schedule: Q01DX Z (ip), vehicle: methylcellulose (MC) 107 % of control | dose: 60.0 mg/kg/injection, schedule: Q01DX Z (oral), vehicle: methylcellulose (MC) 101 % of control | dose: 120.0 mg/kg/injection, schedule: Q01DX Z (ip), vehicle: methylcellulose (MC) 103 % of control | dose: 120.0 mg/kg/injection, schedule: Q01DX Z (oral), vehicle: methylcellulose (MC) 97 % of control | dose: 240.0 mg/kg/injection, schedule: Q01DX Z (ip), vehicle: methylcellulose (MC) 98 % of control | dose: 240.0 mg/kg/injection, schedule: Q01DX Z (oral), vehicle: methylcellulose (MC) 95 % of control | dose: 375.0 mg/kg/injection, schedule: Q01DX Z (oral), vehicle: methylcellulose (MC) 95 % of control

c1ccc(-c2nc(Oc3ccc(Oc4nc(-c5ccccc5)nc(-c5ccccc5)n4)cc3)nc(-c3ccccc3)n2)cc1
inactive: dose: 25.6 mg/kg/injection, schedule: Q04DX002 (ip), vehicle: saline with Tween-80 91 % of control | dose: 64.0 mg/kg/injection, schedule: Q04DX002 (ip), vehicle: saline with Tween-80 97 % of control | dose: 160.0 mg/kg/injection, schedule: Q04DX002 (ip), vehicle: saline with Tween-80 87 % of control | [1] 86 % of control | [2] 97 % of control

Cc1cc(=O)[nH]c(N/N=C/c2ccc(N(CCCl)CCCl)cc2)n1
inactive: dose: 100.0 mg/kg/injection, schedule: Q04DX003 (ip), vehicle: saline with Tween-80 102 % of control | [1] 105 % of control | dose: 400.0 mg/kg/injection, schedule: Q04DX003 (ip), vehicle: saline with Tween-80 109 % of control

OCCSSSCCO
inactive: dose: 75.0 mg/kg/injection, schedule: Q01DX001 (ip), vehicle: other 105 % of control | dose: 150.0 mg/kg/injection, schedule: Q01DX001 (ip), vehicle: other 115 % of control

COc1ccc(C(=O)C(Br)(Cc2ccccc2)OC)cc1 (centres undefined)
inactive: dose: 66.0 mg/kg/injection, schedule: Q04DX003 (ip), vehicle: saline 93 % of control | dose: 100.0 mg/kg/injection, schedule: Q04DX003 (ip), vehicle: saline 94 % of control | dose: 150.0 mg/kg/injection, schedule: Q04DX003 (ip), vehicle: saline 94 % of control

O=[N+]([O-])c1ccc(N/N=C/C(O)C(O)C(O)CO)cc1 (centres undefined)
inactive: dose: 50.0 mg/kg/injection, schedule: Q04DX002 (ip), vehicle: saline with Tween-80 106 % of control | [3] 106 % of control | [4] 87 % of control

CC(=O)OC1CCC2(C)C(=CCC3C4C/C(=C\N5CCCC5)C(=O)C4(C)CCC32)C1 (centres undefined)
inactive: [5] 93 % of control | [6] 90 % of control | [7] 90 % of control

C=CCN(CC=C)c1ncnc2[nH]ncc12
inactive: dose: 7.0 mg/kg/injection, schedule: Q01DX015 (ip), vehicle: carboxymethylcellulose (CMC) 91 % of control | dose: 16.0 mg/kg/injection, schedule: Q01DX015 (ip), vehicle: carboxymethylcellulose (CMC) 97 % of control | dose: 32.0 mg/kg/injection, schedule: Q01DX015 (ip), vehicle: carboxymethylcellulose (CMC) 93 % of control | dose: 62.0 mg/kg/injection, schedule: Q01DX015 (ip), vehicle: carboxymethylcellulose (CMC) 106 % of control | [8] 109 % of control | dose: 125.0 mg/kg/injection, schedule: Q01DX015 (ip), vehicle: carboxymethylcellulose (CMC) 89 % of control | [9] 101 % of control | [10] 93 % of control

COc1ccccc1N=Nc1c(O)n(-c2ccccc2OC)c(=S)n(-c2ccccc2)c1=O
inactive: dose: 100.0 mg/kg/injection, schedule: Q01DX001 (ip), vehicle: Klucel (hydroxypropylcellulose) (HPC) 96 % of control | dose: 200.0 mg/kg/injection, schedule: Q01DX001 (ip), vehicle: Klucel (hydroxypropylcellulose) (HPC) 94 % of control

C#CCOC(=O)Nc1ccc(C)cc1
inactive: [11] 108 % of control | [12] 100 % of control | [13] 118 % of control

CCCCOCCCNCC(=O)Nc1ccc(S(=O)(=O)c2ccc(NC(=O)CNCCCOCCCC)cc2)cc1
inactive: [8] 89 % of control | [9] 97 % of control | [10] 108 % of control

CC(=O)OC1CCC2(C)C(=CCC3C2CCC2(C)C3CC3C(c4ccccc4)=NN(c4ccccc4)C32C(C)=O)C1 (centres undefined)
inactive: [14] 92 % of control | [15] 103 % of control | dose: 400.0 mg/kg/injection, schedule: Q04DX002 (ip), vehicle: Klucel (hydroxypropylcellulose) (HPC) 92 % of control

O=C(Nc1cc([N+](=O)[O-])ccc1F)Oc1cccc(C(F)(F)F)c1
inactive: [16] 89 % of control | [17] 97 % of control | [18] 95 % of control

C=C1C[C@]23C[C@@]1(O)CC[C@H]2[C@@]12C=C[C@H](O)[C@@](C)(C(=O)O1)[C@H]2[C@@H]3C(=O)O
inactive: [11] 94 % of control | [8] 104 % of control | dose: 100.0 mg/kg/injection, schedule: Q01DX009 (ip), vehicle: acetone 97 % of control | [12] 96 % of control | [9] 104 % of control | dose: 200.0 mg/kg/injection, schedule: Q01DX009 (ip), vehicle: acetone 94 % of control | [13] 94 % of control | [10] 104 % of control | dose: 400.0 mg/kg/injection, schedule: Q01DX009 (ip), vehicle: acetone 95 % of control | dose: 800.0 mg/kg/injection, schedule: Q01DX009 (ip), vehicle: acetone 92 % of control

CNC(=O)N(C1CCCCC1)C1CCCCC1
inactive: [5] 109 % of control | dose: 100.0 mg/kg/injection, schedule: Q01DX009 (ip), vehicle: saline with Tween-80 94 % of control and 111 % of control | [3] 105 % of control and 108 % of control | [6] 109 % of control | dose: 200.0 mg/kg/injection, schedule: Q01DX009 (ip), vehicle: saline with Tween-80 86 % of control and 91 % of control | [4] 92 % of control and 108 % of control | [7] 108 % of control | dose: 400.0 mg/kg/injection, schedule: Q01DX009 (ip), vehicle: saline with Tween-80 101 % of control and 91 % of control | [2] 96 % of control and 108 % of control

CN(C(=O)c1n[nH]c2ccccc12)c1ccccc1
inactive: dose: 50.0 mg/kg/injection, schedule: Q04DX002 (ip), vehicle: Klucel (hydroxypropylcellulose) (HPC) 101 % of control | [14] 108 % of control | [15] 101 % of control

C1=C(c2ccccc2)CCCC1
inactive: dose: 100.0 mg/kg/injection, schedule: Q01DX009 (ip), vehicle: Klucel (hydroxypropylcellulose) (HPC) 92 % of control | [16] 106 % of control | dose: 200.0 mg/kg/injection, schedule: Q01DX009 (ip), vehicle: Klucel (hydroxypropylcellulose) (HPC) 95 % of control | [17] 100 % of control | dose: 400.0 mg/kg/injection, schedule: Q01DX009 (ip), vehicle: Klucel (hydroxypropylcellulose) (HPC) 109 % of control | [18] 92 % of control

Reference: PubChem BioAssay AID248 (DTP/NCI, 2004)
